# In patent publication US9199941B2, “Pyrazole indanyl carboxamides” (BAYER CROPSCIENCE AG, priority 2012, dated 2015):
# Tests used:
# Sphaerotheca fuliginea = experiment: In vivo preventive test on Sphaerotheca fuliginea (powdery mildew on cucurbits); settings: preventive spray, gherkin plants, grading 12 days after contamination
# Procedure: Gherkin plants (“Vert petit de Paris” variety), sown in starter cups on a 50/50 peat soil-pozzolana substrate and grown at 24° C., are treated at the Z11 cotyledon stage by spraying with the active ingredient prepared as described above. Plants, used as controls, are treated with the mixture of acetone/tween/DMSO/water not containing the active material. After 24 hours, the plants are contaminated by spraying the cotyledons with an aqueous suspension of Sphaerotheca fuliginea spores (100 000 spores per ml). The spores are collected from infected plants. The contaminated gherkin plants are incubated at about 20° C. and at 70-80% relative humidity. Grading (% of efficacy) is carried out 12 days after the contamination, in comparison with the control plants.
# [1] = log P by HPLC on reversed phase columns (EEC directive 79/831 Annex V.A8); assay type: physicochemical; settings: Table 1, compounds of formula (I); method [a]: LC-MS at pH 2.7, 0.1% formic acid in water / acetonitrile
# Uromyces appendiculatus = experiment: In vivo preventive test on Uromyces appendiculatus (bean rust); settings: preventive spray, bean plants, grading 11 days after contamination
# Procedure: Bean plants (“Saxa” variety), sown in starter cups on a 50/50 peat soil-pozzolana substrate and grown at 24° C., are treated at the 2-leaf stage (9 cm height) by spraying with the active ingredient prepared as described above. Plants, used as controls, are treated with the mixture of acetone/tween/DMSO/water not containing the active material. After 24 hours, the plants are contaminated by spraying the leaves with an aqueous suspension of Uromyces appendiculatus spores (150 000 spores per ml). […] Grading (% of efficacy) is carried out 11 days after the contamination, in comparison with the control plants.
# Septoria tritici = experiment: In vivo preventive test on Septoria tritici (leaf spot on wheat); settings: 500 ppm, preventive spray, wheat plants, grading 24 days after contamination
# Procedure: Wheat plants (“Scipion” variety), sown in starter cups on a 50/50 peat soil-pozzolana substrate and grown at 22° C., are treated at the 1-leaf stage (10 cm height) by spraying with the active ingredient prepared as described above. Plants, used as controls, are treated with the mixture of acetone/tween/DMSO/water not containing the active material. After 24 hours, the plants are contaminated by spraying the leaves with an aqueous suspension of cryopreserved Septoria tritici spores (500 000 spores per ml). […] Grading (% of efficacy) is carried out 24 days after the contamination, in comparison with the control plants.
# Puccinia recondita = experiment: In vivo preventive test on Puccinia recondita (brown rust on wheat); settings: preventive spray, wheat plants, grading 12 days after contamination
# Procedure: Plants, used as controls, are treated with the mixture of acetone/tween/DMSO/water not containing the active material. After 24 hours, the plants are contaminated by spraying the leaves with an aqueous suspension of Puccinia […] spores (100 000 spores per ml). […] Grading (% of efficacy) is carried out 12 days after the contamination, in comparison with the control plants.
# Pyrenophora teres = experiment: In vivo preventive test on Pyrenophora teres (net blotch on barley); settings: preventive spray, barley plants, incubated 48 hours then 12 days; for Eff. %: 500 ppm; for Efficacy: 100 ppm
# Procedure: Barley plants (“Plaisant” variety), sown in starter cups on a 50/50 peat soil-pozzolana substrate and grown at 22° C., are treated at the 1-leaf stage (10 cm height) by spraying with the active ingredient prepared as described above. Plants, used as controls, are treated with the mixture of acetone/tween/DMSO/water not containing the active material. After 24 hours, the plants are contaminated by spraying the leaves with an aqueous suspension of Pyrenophora teres spores (12 000 spores per ml). The spores are collected from a 12-day-old culture.
# Alternaria brassicae = experiment: In vivo preventive test on Alternaria brassicae (leaf spot on radish); settings: 500 ppm, preventive spray, radish plants, grading 6 days after contamination
# Procedure: Radish plants (“Pernod Clair” variety), sown in starter cups on a 50/50 peat soil-pozzolana substrate and grown at 17° C., are treated at the cotyledon stage by spraying with the active ingredient prepared as described above. Plants, used as controls, are treated with the mixture of acetone/tween/DMSO/water not containing the active material. After 24 hours, the plants are contaminated by spraying the cotyledons with an aqueous suspension of Alternaria brassicae spores (50 000 spores per ml). The spores are collected from a 15-day-old culture. […] Grading (% of efficacy) is carried out 6 days after the contamination, in comparison with the control plants.
# Botrytis cinerea = experiment: In vivo preventive test on Botrytis cinerea (grey mould), gherkin; settings: preventive spray, gherkin plants, grading 4 to 5 days after contamination
# Procedure: Gherkin plants (“Vert petit de Paris” variety), sown in starter cups on a 50/50 peat soil-pozzolana substrate and grown at 24° C., are treated at the Z11 cotyledon stage by spraying with the active ingredient prepared as described above. Plants, used as controls, are treated with the mixture of acetone/tween/DMSO/water not containing the active material. After 24 hours, the plants are contaminated by spraying the cotyledons with an aqueous suspension of cryopreserved Botrytis cinerea spores (50 000 spores per ml). The spores are suspended in a nutrient solution composed of 10 g/L of PDB, 50 g/L of D-Fructose, 2 g/L of NH4NO3 and 1 g/L of KH2PO4. The contaminated gherkin plants are incubated at 17° C. and at 90% relative humidity. Grading (% of efficacy) is carried out 4 to 5 days after the contamination, in comparison with the control plants.
# Phakopsora pachyrhizi = experiment: In vivo Phakopsora test (soybeans) / preventive; settings: 10 ppm of active ingredient, evaluated 7 days after the inoculation
# Procedure: [table] To produce a suitable preparation of active compound, 1 part by weight of active compound is mixed with the stated amounts of solvent and emulsifier, and the concentrate is diluted with water to the desired concentration. To test for preventive activity, young plants are sprayed with the preparation of active compound at the stated rate of application. […] The plants remain in the incubation cabinet at approximately 24° C. and a relative atmospheric humidity of approximately 80% and a day/night interval of 12 h.
SMILES,Eff. % (Sphaerotheca fuliginea; 500 ppm) [%],logP [1],Eff. % (Uromyces appendiculatus; 500 ppm) [%],Eff. % (Septoria tritici) [%],Eff. % (Puccinia recondita; 500 ppm) [%],Eff. % (Pyrenophora teres) [%],Eff. % (Alternaria brassicae) [%],Eff. % (Botrytis cinerea; 500 ppm) [%],Efficacy (Pyrenophora teres),Eff. % (Phakopsora pachyrhizi) [%],Eff. % (Sphaerotheca fuliginea; 100 ppm) [%],Eff. % (Uromyces appendiculatus; 100 ppm) [%],Eff. % (Botrytis cinerea; 100 ppm) [%],Eff. % (Puccinia recondita; 100 ppm) [%]
CC1CC2(CC2(Cl)Cl)c2cccc(NC(=O)c3cn(C)nc3C(F)F)c21 (stereo not shown) [Example 3],100,3.46[a],100,100,94,81,–,–,–,–,–,–,–,–
CC1CC(C(C)C)c2cccc(NC(=O)c3cn(C)nc3C(F)F)c21 (stereo not shown) [Example 6],97,3.82[a],100,92,100,96,100,–,–,–,–,–,–,–
CC1CC(C)c2c(NC(=O)c3cn(C)nc3C(F)F)cccc21 (stereo not shown) [Example 8],95,3.21[a],100,91,100,88,–,100,–,–,–,–,–,–
CC1CCc2cccc(NC(=O)c3cn(C)nc3C(F)F)c21 (stereo not shown) [Example 9],–,2.78[a],100,97,100,96,92,–,at least 70%,–,–,–,–,–
CCCON=C1CC(C)c2c(NC(=O)c3cn(C)nc3C(F)F)cccc21 (stereo not shown) [Example 11],–,3.26[a],90,–,81,83,93,–,–,–,–,–,–,–
Cn1cc(C(=O)Nc2cccc3c2CCC32OCCO2)c(C(F)F)n1 [Example 12],–,1.9[a],–,–,83,–,86,–,–,–,–,–,–,–
CC1CC(CC(C)(C)C)c2cccc(NC(=O)c3cn(C)nc3C(F)F)c21 (stereo not shown) [Example 18],100,4.44[a],100,93,100,–,83,–,–,–,–,–,–,–
CCCON=C1CC(C)c2c(NC(=O)c3c(C)nn(C)c3F)cccc21 (stereo not shown) [Example 19],89,3.24[a],93,–,81,75,–,–,–,–,–,–,–,–
Cc1nn(C)c(F)c1C(=O)Nc1cccc2c1C(C)CC2CC(C)C (stereo not shown) [Example 20],98,4.32[a],100,79,100,97,93,–,–,–,–,–,–,–
CCC1(C)CCc2c(NC(=O)c3cn(C)nc3C(F)F)cccc21 (stereo not shown) [Example 24],98,3.62[a],97,92,98,80,–,–,–,–,–,–,–,–
CC1CC2(CC2)c2cccc(NC(=O)c3cn(C)nc3C(F)F)c21 (stereo not shown) [Example 25],100,3.13[a],99,92,100,96,93,88,–,94,–,–,–,–
CON=C1CC(C)c2c(NC(=O)c3c(C)nn(C)c3F)cccc21 (stereo not shown) [Example 27],–,2.33[a],–,–,86,–,75,–,–,–,–,–,–,–
CC(C)CC1CC(C)c2c(NC(=O)c3cn(C)nc3C(F)F)cccc21 (stereo not shown) [Example 33],100,4.24[a],100,93,98,97,97,–,–,–,–,–,–,–
CCON=C1CC(C)c2c(NC(=O)c3cn(C)nc3C(F)F)cccc21 (stereo not shown) [Example 34],–,2.78[a],97,86,81,83,86,–,–,–,–,–,–,–
CC1CC2(CC2)c2cccc(NC(=S)c3cn(C)nc3C(F)F)c21 (stereo not shown) [Example 38],–,4.61[a],–,–,83,–,71,–,70%,–,–,–,–,–
CC1CC2(CC2)c2cccc(NC(=S)c3cn(C)nc3C(F)(F)F)c21 (stereo not shown) [Example 41],98,–,100,–,100,–,75,–,–,–,–,–,–,–
CC1CC(CC(C)(C)C)c2cccc(NC(=S)c3cn(C)nc3C(F)F)c21 (stereo not shown) [Example 42],100,–,100,88,98,–,75,–,–,–,–,–,–,–
CC(C)CC1CC(C)c2c(NC(=S)c3cn(C)nc3C(F)F)cccc21 (stereo not shown) [Example 44],100,–,100,88,100,–,95,73,–,–,–,–,–,–
CC1CC2(CCCCC2)c2cccc(NC(=O)c3cn(C)nc3C(F)F)c21 (stereo not shown) [Example 46],–,4.2[a],–,–,–,–,–,–,–,–,100,100,75,100
CC1CC2(CC2)c2cccc(NC(=O)c3cn(C)nc3I)c21 (stereo not shown) [Example 52],–,3.24[a],–,–,–,–,–,–,–,–,88,100,87,90
CC1CC2(CCCCC2)c2cccc(NC(=S)c3cn(C)nc3C(F)F)c21 (stereo not shown) [Example 53],–,4.67[a],–,–,–,–,–,–,–,–,100,100,82,100
